“Also recorded” adds a separate entry of the source. Like-named read-outs stand apart in the source and are kept apart here.
What was measured:
Format in all cases: cell-based
Ghost(3) cells = tested on: Ghost(3) cells
Description: Apoptosis was measured in Ghost(3) cells 30 hours post-infection or drug treatment using the NucView™ 488 Caspase3 Assay Kit (Biotium) in a 96 well format. Data was analysed in MATLAB using a probabilistic region method to measure cell attachment and expressed as percentage cell survival. […] An average of 3000 cells per condition were analysed with the exception of cells treated with Doxorubicin followed by HIV-infection (FIG. 3), cells transfected with lincRNAp21 overexpression constructs followed by Doxorubicin treatment, and cells transfected with full-length lincRNAp21, infected with HIV1 and treated with Nutlin3 (FIG. 25). These latter conditions ( ? ) yielded too few attached cells (<20) at 30 hours for similar analysis.
Apoptosis was measured in Ghost(3) cells 30 hours post-infection or drug treatment using the NucView™ 488 Caspase-3 Assay Kit (Biotium) in a 96 well format. Data was analysed in MATLAB using a probabilistic region method to measure cell attachment and expressed as percentage cell survival. […] An average of 3000 cells per condition were analysed with the exception of cells treated with Doxorubicin followed by HIV-infection (FIG. 27), cells transfected with lincRNA-p21 overexpression constructs followed by Doxorubicin treatment (FIG. 36), and cells transfected with full-length lincRNA-p21, infected with HIV-1 and treated with Nutlin3 (FIG. 45). These latter conditions ( ? ) yielded too few attached cells (<20) at 30 hours for similar analysis.

H2A.XpSer139 = assay: Immunofluorescence staining of double strand breaks (H2A.XpSer139)
Description: (§1) For each experiment, Ghost(3) cells or IPSC-derived primary macrophages were infected or treated with 500 nM Doxorubicin on coverslips, fixed for 10 mins in fresh 4% paraformaldehyde at room temperature, then washed 3 times in PBS and permeabilised for 10 mins in ice-cold methanol at […]. Coverslips were washed once in PBS and incubated in blocking buffer (5% goat serum, 0.3% TritonX100 in PBS) for 60 mins at room temperature. Cells were incubated in primary antibody solution (1% BSA, 0.3% Triton X100 in PBS) overnight at 4° C. Double strand breaks were detected using rabbit polyclonal anti-phosphohistone H2A.X Ser139 (Cell Signaling). Activated ATM was detected using rabbit monoclonal anti-phosphoATM Ser1981 (Cell Signaling). The ability of p53 to regulate apoptosis was detected using rabbit polyclonal antiphosphop53 Ser46 (Cell Signaling). Viral p24 was detected using mouse monoclonal anti-HIV1p24 (AIDS Research and Reference Reagent Program, Division of AIDS, NIAID, NIH). HuR was detected using mouse monoclonal anti-HuR 3A2 (Santa Cruz Biotechnology). hnRNPK was detected using goat polyclonal anti-hnRNPK P20 (Santa Cruz Biotechnology). Coverslips were washed 3 times (5 mins each on an orbital shaker) with wash buffer (0.05% Tween20 in PBS), followed by incubation with secondary antibodies conjugated to either Atto550 or Atto565 or Atto647 for 60 mins at room temperature. Coverslips were washed 3 times (5 mins each on an orbital shaker) with wash buffer (0.05% Tween20 in PBS). Coverslips were incubated in equilibration buffer (0.4% glucose, 2×SCC) for 5 mins and counter stained with 1 mg/ml DAPI (4′,6-diamidino-2-phenylindole; Life Technologies). Coverslips were mounted in glox buffer (3.7 mg/ml glucose oxidase, 1 U catalase) and imaged.
(§2) For each experiment, cells were infected or treated with drugs on coverslips, fixed for 10 mins in fresh 4% paraformaldehyde at room temperature, then washed 3 times in PBS and permeabilised for 10 mins in ice-cold methanol at −20° C. Coverslips were washed once in PBS and incubated in blocking buffer (5% goat serum, 0.3% Triton-X100 in PBS) for 60 mins at room temperature. […] Double strand breaks were detected using rabbit polyclonal anti-phospho-histone H2A.X Ser139 (Cell Signaling). Activated ATM was detected using rabbit monoclonal anti-phospho-ATM Ser1981 (Cell Signaling). The ability of p53 to regulate apoptosis was detected using rabbit polyclonal anti-phospho-p53 Ser46 (Cell Signaling). Viral p24 was detected using mouse monoclonal anti-HIV-1-p24 (AIDS Research and Reference Reagent Program, Division of AIDS, NIAID, NIH). HuR was detected using mouse monoclonal anti-HuR 3A2 (Santa Cruz Biotechnology). hnRNP-K was detected using goat polyclonal anti-hnRNP-K P-20 (Santa Cruz Biotechnology). […]

hnRNP-K = assay: Immunofluorescence of hnRNP-K cellular location in Ghost(3) cells
Description: as §1
For each experiment, cells were infected or treated with drugs on coverslips, fixed for 10 mins in fresh 4% paraformaldehyde at room temperature, then washed 3 times in PBS and permeabilised for 10 mins in ice-cold methanol at −20° C. Coverslips were washed once in PBS and incubated in blocking buffer (5% goat serum, 0.3% Triton-X100 in PBS) for 60 mins at room temperature. Cells were incubated in primary antibody solution (1% BSA, 0.3% Triton X-100 in PBS) overnight at 4° C. Double strand breaks were detected using rabbit polyclonal anti-phospho-histone H2A.X Ser139 (Cell Signaling). Activated ATM was detected using rabbit monoclonal anti-phospho-ATM Ser1981 (Cell Signaling). The ability of p53 to regulate apoptosis was detected using rabbit polyclonal anti-phospho-p53 Ser46 (Cell Signaling). Viral p24 was detected using mouse monoclonal anti-HIV-1-p24 (AIDS Research and Reference Reagent Program, Division of AIDS, NIAID, NIH). HuR was detected using mouse monoclonal anti-HuR 3A2 (Santa Cruz Biotechnology). hnRNP-K was detected using goat polyclonal anti-hnRNP-K P-20 (Santa Cruz Biotechnology). Coverslips were washed 3 times (5 mins each on an orbital shaker) with wash buffer (0.05% Tween-20 in PBS), followed by incubation with secondary antibodies conjugated to either Atto-550 or Atto-565 or Atto-647 for 60 mins at room temperature. Coverslips were washed 3 times (5 mins each on an orbital shaker) with wash buffer (0.05% Tween-20 in PBS). Coverslips were incubated in equilibration buffer (0.4% glucose, 2×SCC) for 5 mins and counter stained with 1 mg/ml DAPI (4′,6-diamidino-2-phenylindole; Life Technologies). Coverslips were mounted in glox buffer (3.7 mg/ml glucose oxidase, 1 U catalase) and imaged.

ATMpSer1981 = assay: Immunofluorescence staining of activated ATM (ATMpSer1981); settings: Ghost(3) cells, Doxorubicin 500 nM, no HIV
Description: as §1, with “Coverslips were washed 3 times (5 mins each on an orbital shaker) with wash buffer (0.05% Tween20 in PBS). Coverslips were incubated in equilibration buffer (0.4% glucose, 2×SCC) for 5 mins and counter stained with 1 mg/ml DAPI (4′,6-diamidino-2-phenylindole; Life Technologies). Coverslips were mounted in glox buffer (3.7 mg/ml glucose oxidase, 1 U catalase) and imaged.” left out

p53pSer46 = assay: Immunofluorescence staining of p53pSer46 apoptotic mark; settings: Ghost(3) cells, Doxorubicin 500 nM, no HIV
Description: as §1, with “Coverslips were washed 3 times (5 mins each on an orbital shaker) with wash buffer (0.05% Tween20 in PBS). Coverslips were incubated in equilibration buffer (0.4% glucose, 2×SCC) for 5 mins and counter stained with 1 mg/ml DAPI (4′,6-diamidino-2-phenylindole; Life Technologies). Coverslips were mounted in glox buffer (3.7 mg/ml glucose oxidase, 1 U catalase) and imaged.” left out

HuR = assay: Immunofluorescence of HuR cellular location in Ghost(3) cells; settings: Ghost(3) cells, Doxorubicin-treated, no HIV
Description: as §1, with “Coverslips were washed 3 times (5 mins each on an orbital shaker) with wash buffer (0.05% Tween20 in PBS), followed by incubation with secondary antibodies conjugated to either Atto550 or Atto565 or Atto647 for 60 mins at room temperature. Coverslips were washed 3 times (5 mins each on an orbital shaker) with wash buffer (0.05% Tween20 in PBS). Coverslips were incubated in equilibration buffer (0.4% glucose, 2×SCC) for 5 mins and counter stained with 1 mg/ml DAPI (4′,6-diamidino-2-phenylindole; Life Technologies). Coverslips were mounted in glox buffer (3.7 mg/ml glucose oxidase, 1 U catalase) and imaged.” left out
as §2, with “C.” for “C. Coverslips were washed once in PBS and incubated in blocking buffer (5% goat serum, 0.3% Triton-X100 in PBS) for 60 mins at room temperature.”

[1] = Ghost(3) cells infected with HIV-1 24 hours prior to Doxorubicin treatment
[2] = uninfected Ghost(3) cells, lethal dose of Doxorubicin (500 nM)

## COc1cccc2c1C(=O)c1c(O)c3c(c(O)c1C2=O)C[C@@](O)(C(=O)CO)C[C@@H]3O[C@H]1C[C@H](N)[C@H](O)[C@H](C)O1 [Doxorubicin]
Ghost(3) cells; Ghost(3) cells infected with HIV-1 24 hours before the same duration of Doxorubicin treatment
  percentage cell survival: 60%
Ghost(3) cells; [1]
  apoptosis: do not undergo apoptosis
Ghost(3) cells; Ghost(3) cells that received Doxorubicin prior to HIV-1 infection
  apoptosis: underwent apoptosis; also recorded: do undergo apoptosis
Ghost(3) cells; Ghost(3) cells, Doxorubicin only (lethal dose), no HIV
  percentage cell survival: 32%
Ghost(3) cells; cells concurrently infected and treated with Maraviroc, Tenofovir or Raltegravir, Doxorubicin added 24 hours later
  apoptosis: the cells underwent apoptosis
Ghost(3) cells; [2]
  apoptosis: apoptosis at 48 hours; also recorded: by 24 hours, cells were apoptotic; also recorded: followed by apoptosis
H2A.XpSer139; [1]
  DSBs (H2A.XpSer139 staining): numerous DSBs
H2A.XpSer139; Ghost(3) cells infected with HIV-1 after exposure to Doxorubicin
  DSBs (H2A.XpSer139 staining): extensive H2A.XpSer139 staining
H2A.XpSer139; [2]
  H2A.X (pSer139) staining of DSBs: extensive H2A.X staining within 8 hours of treatment; also recorded: extensive H2A.XpSer139 staining
hnRNP-K; Ghost(3) cells, drug only, no HIV infection
  cellular location of hnRNP-K: nuclear hnRNP-K within 2 hours; also recorded: detected in the nucleus of Doxorubicin-treated cells between 2 and 4 hours post-treatment; also recorded: nuclear hnRNPK within 2 hours
hnRNP-K; cells concurrently infected and treated with Maraviroc, Tenofovir or Raltegravir, Doxorubicin added afterwards
  cellular location of hnRNP-K: hnRNPK localized to the nucleus; also recorded: nuclear hnRNPK within 3 hours of chemical-induced DNA damage
ATMpSer1981
  phosphorylation of ATM at Ser1981: phosphorylation of both ATMpSer1981 and p53pSer46 in the nucleus within 8 hours; also recorded: Phosphorylated ATM is detected
p53pSer46
  phosphorylation of p53 at Ser46: phosphorylation of both ATMpSer1981 and p53pSer46 in the nucleus within 8 hours; also recorded: Activated p53 dimers are detected
HuR
  cellular location of HuR: cytoplasmic HuR within 8 hours; also recorded: moved from the nucleus into the cytoplasm within 8 hours of treatment

From patent US10143691B2, “Pathogenic control of apoptosis” (CSIR, priority 2014, dated 2018)
